Several values for one entry are separate records, joined by “and”; a condition that tells them apart may be missing. Identical values can stand only once.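 Step 1: Grow cells in 96-well plates. Step 2: Expose to compound for 48 hours at 5 concentrations. Step 3: Interpolate endpoints linearly; if unreached, use highest concentration. GI50: concentration for 50% inhibition of growth. TGI: total growth inhibition.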

Some test systems named below: NCI-H522 lung; SR leukemia; OVCAR-3 ovarian; IGROV1 ovarian; SK-OV-3 ovarian; OVCAR-8 ovarian; TK-10 renal; NCI/ADR-RES ovarian.
Assay in all cases: NCI-60 cell line screen, 48 h

For the molecule `CC(C)c1ccc(C(O)(C(=O)O)c2ccc(C(C)C)cc2)cc1`, the TGI with NCI-H522 lung was more than 100 µM; in the experiment with SR leukemia it was more than 100 µM; in the experiment with OVCAR-3 ovarian it was 60.7 µM; in the experiment on IGROV1 ovarian, more than 100 µM; in the experiment on SK-OV-3 ovarian, more than 100 µM; in the experiment on OVCAR-8 ovarian it was more than 100 µM. In addition, the TGI in the experiment with TK-10 renal and in the experiment with NCI/ADR-RES ovarian was more than 100 µM each time.
In the case of `COc1cc2c(cc1OC)-c1c(c3ccc([N+](=O)[O-])cc3c(=O)n1CCCN=[N+]=[N-])C2=O`, the GI50 in the experiment with NCI-H522 lung is 11.7 µM; in the experiment on SR leukemia, 0.509 µM; in the experiment with OVCAR-3 ovarian it was more than 100 µM; in the experiment with IGROV1 ovarian it was 7.5 µM; in the experiment with SK-OV-3 ovarian, more than 100 µM; with OVCAR-8 ovarian, 40.9 µM. For the same molecule, the GI50 in the experiment with TK-10 renal was more than 100 µM; in the experiment with NCI/ADR-RES ovarian, 31.7 µM. For the same molecule, the TGI was more than 100 µM in the experiment on NCI-H522 lung; 3.68 µM with SR leukemia; more than 100 µM in the experiment with OVCAR-3 ovarian; more than 100 µM in the experiment with IGROV1 ovarian; more than 100 µM in the experiment with SK-OV-3 ovarian; more than 100 µM with OVCAR-8 ovarian. Besides, the TGI in the experiment with TK-10 renal and in the experiment on NCI/ADR-RES ovarian was more than 100 µM each time.
For `CC1OC(OC2C(O)C(OCCc3ccc(O)c(O)c3)OC(CO)C2OC(=O)/C=C/c2ccc(O)c(O)c2)C(O)C(O)C1O` (stereo not given), the GI50 was more than 100 µM with NCI-H522 lung; 0.634 µM in the experiment on SR leukemia; 27.4 µM in the experiment on OVCAR-3 ovarian; 47.6 µM in the experiment on IGROV1 ovarian; more than 100 µM with SK-OV-3 ovarian; more than 100 µM in the experiment with OVCAR-8 ovarian. Moreover, the GI50 in the experiment on TK-10 renal and in the experiment on NCI/ADR-RES ovarian was more than 100 µM each time. Moreover, the TGI was more than 100 µM in the experiment with NCI-H522 lung; more than 100 µM in the experiment with SR leukemia; 79.7 µM with OVCAR-3 ovarian; more than 100 µM with IGROV1 ovarian; more than 100 µM in the experiment with SK-OV-3 ovarian; more than 100 µM in the experiment on OVCAR-8 ovarian. Further, the TGI in the experiment with TK-10 renal and in the experiment on NCI/ADR-RES ovarian was more than 100 µM each time.
`CC(=O)OCC1OC([S-])C(OC(C)=O)C(OC(C)=O)C1OC(C)=O.[Au+].c1ccc(CN2[CH-]N(Cc3ccccc3)C(c3ccccc3)=C2c2ccccc2)cc1`: the GI50 in the experiment on NCI-H522 lung is 2.03 µM and 0.551 µM; in the experiment on SR leukemia, 2.7 µM and 0.364 µM; in the experiment on OVCAR-3 ovarian it was 1.8 µM and 0.444 µM; in the experiment on IGROV1 ovarian it was 1.83 µM and 0.514 µM; in the experiment on OVCAR-8 ovarian it was 3.17 µM and 0.479 µM; in the experiment on TK-10 renal, 2.66 µM and 0.796 µM. Further, the GI50 in the experiment on NCI/ADR-RES ovarian is 6.35 µM and 1.68 µM. Moreover, the TGI with NCI-H522 lung is 4.7 µM and 1.56 µM; with SR leukemia it was 8.26 µM and 47.5 µM; in the experiment on OVCAR-3 ovarian, 3.25 µM and 1.28 µM; in the experiment with IGROV1 ovarian it was 3.91 µM and 1.44 µM; in the experiment with SK-OV-3 ovarian, 26.3 µM and 5.17 µM; in the experiment with OVCAR-8 ovarian, 11.6 µM and 4.44 µM. Moreover, the TGI in the experiment on TK-10 renal was 8.34 µM and 3.8 µM; in the experiment on NCI/ADR-RES ovarian it was 21.8 µM and 9.04 µM.
With `COC1/C=C/OC2(C)Oc3c(C)c(O)c4c(O)c(c(/C=N/N(c5ccccc5)c5ccccc5)c(O)c4c3C2=O)NC(=O)C(C)=C/C=C/C(C)C(O)C(C)C(O)C(C)C(OC(C)=O)C1C` (stereo not given), the GI50 in the experiment with NCI-H522 lung is 0.983 µM; in the experiment on SR leukemia it was 1.4 µM; in the experiment on OVCAR-3 ovarian, 0.852 µM; with IGROV1 ovarian it was 1.85 µM; with SK-OV-3 ovarian it was 6.38 µM; in the experiment on OVCAR-8 ovarian, 1.8 µM. Besides, the GI50 was 1.8 µM in the experiment with TK-10 renal and 3.76 µM in the experiment with NCI/ADR-RES ovarian. The TGI with NCI-H522 lung was determined as 2.19 µM; with SR leukemia, 3.39 µM; with OVCAR-3 ovarian it was 1.7 µM; in the experiment with IGROV1 ovarian, 11.5 µM; in the experiment on SK-OV-3 ovarian, 12.9 µM; in the experiment on OVCAR-8 ovarian, 7.97 µM. For the same molecule, the results for the TGI in the experiment with TK-10 renal and in the experiment on NCI/ADR-RES ovarian were 7.55 µM and 12.6 µM, respectively.
Consider `COc1cc(C(=O)c2cnc(-c3ccc4cc[nH]c4c3)[nH]2)cc(OC)c1OC`, for which the GI50 with NCI-H522 lung was less than 0.0128 µM; in the experiment with SR leukemia, 0.0302 µM; in the experiment with OVCAR-3 ovarian, 0.0195 µM; with IGROV1 ovarian, 0.0997 µM; in the experiment on SK-OV-3 ovarian, 0.0358 µM; with OVCAR-8 ovarian it was 0.0484 µM. Also, the GI50 is 0.34 µM in the experiment with TK-10 renal and 0.0371 µM with NCI/ADR-RES ovarian. The TGI worked out at 0.0913 µM with NCI-H522 lung; 23.8 µM in the experiment with SR leukemia; 0.0477 µM in the experiment with OVCAR-3 ovarian; 16.7 µM in the experiment with IGROV1 ovarian; 1.93 µM in the experiment on SK-OV-3 ovarian; 11.5 µM in the experiment with OVCAR-8 ovarian. Besides, the results for the TGI in the experiment with TK-10 renal and with NCI/ADR-RES ovarian were 12.4 µM and 56 µM, respectively.
As for `N#Cc1ccc(C(=O)c2cnn(-c3ccc(F)cc3)c2N)cc1`, the GI50 with NCI-H522 lung, with SR leukemia, in the experiment on OVCAR-3 ovarian, in the experiment with IGROV1 ovarian, in the experiment on SK-OV-3 ovarian and in the experiment on OVCAR-8 ovarian was more than 25 µM each time. Also, the GI50 with TK-10 renal and with NCI/ADR-RES ovarian was more than 25 µM throughout. In addition, the TGI in the experiment with NCI-H522 lung, with SR leukemia, in the experiment on OVCAR-3 ovarian, in the experiment on IGROV1 ovarian, with SK-OV-3 ovarian and in the experiment on OVCAR-8 ovarian was more than 25 µM each time. Besides, the TGI in the experiment on TK-10 renal and in the experiment with NCI/ADR-RES ovarian was more than 25 µM each time.
As to `O=C1/C=C/[C@@H](O)[C@@H]2C[C@@H](O)C[C@H]2/C=C/CCC[C@H](CCc2ccc(NC(=S)Nc3ccc4c(c3)C(=O)OC43c4ccc(O)cc4Oc4cc(O)ccc43)cc2)O1`, the GI50 in the experiment with NCI-H522 lung was 1.6 µM; with SR leukemia, 0.517 µM; in the experiment with OVCAR-3 ovarian, 0.317 µM; in the experiment on IGROV1 ovarian, 0.622 µM; in the experiment with SK-OV-3 ovarian, 0.578 µM; in the experiment with OVCAR-8 ovarian, 0.401 µM. Besides, the values for the GI50 in the experiment with TK-10 renal and in the experiment on NCI/ADR-RES ovarian were 0.608 µM and 0.407 µM, respectively. Moreover, the TGI is 5.24 µM in the experiment with NCI-H522 lung; more than 100 µM with SR leukemia; 0.862 µM in the experiment on OVCAR-3 ovarian; 2.69 µM in the experiment on IGROV1 ovarian; more than 100 µM in the experiment with SK-OV-3 ovarian; more than 100 µM in the experiment on OVCAR-8 ovarian. The TGI is 12.6 µM with TK-10 renal and more than 100 µM in the experiment on NCI/ADR-RES ovarian.
Take `CN(C)c1ccc(/C=N/n2c(CCCCc3n[nH]c(=S)n3/N=C/c3ccc(N(C)C)cc3)n[nH]c2=S)cc1`: the GI50 in the experiment on NCI-H522 lung, in the experiment with SR leukemia, in the experiment on OVCAR-3 ovarian, with IGROV1 ovarian, with SK-OV-3 ovarian and with OVCAR-8 ovarian was more than 100 µM throughout. The GI50 with TK-10 renal and with NCI/ADR-RES ovarian was more than 100 µM each time. Further, the TGI with NCI-H522 lung, in the experiment on SR leukemia, with OVCAR-3 ovarian, in the experiment with IGROV1 ovarian, in the experiment on SK-OV-3 ovarian and in the experiment on OVCAR-8 ovarian was more than 100 µM each time. The TGI in the experiment with TK-10 renal and in the experiment on NCI/ADR-RES ovarian was more than 100 µM in each case.
